Assay results as given in patent US10542754B2, “Synergistic effect of spinetoram and methoxyfenozide for control of stem borer on rice” (Dow AgroSciences LLC, priority 2014, dated 2020).

Test system: striped stem borer (SSB)
Assay: Laboratory bioassay, rice stem dipping method, against striped stem borer on rice
Conditions: for Numbers of Dead SSB: four replicates
Description: Cotoxicity Coefficient (CTC) value was used to determine an existence of synergic effect between spinetoram and methoxyfenozide in the formulated pesticidal composition.
The CTC value of the formulated composition was used to determine the biological responses to the treatment: additive, synergism, or antagonism. The CTC value of more than 120 indicates a synergistic effect between the combined pesticidal compounds. The CTC value of about 80 to 120 indicates an additive effect between the combined pesticidal compounds. The CTC value of less than 80 indicates antagonistic effect between the combined pesticidal compounds
Pesticidal compositions were prepared by thoroughly mixing spinetoram and methoxyfenozide at various weight ratios as shown in TABLE 3.
The effectiveness of the pesticidal compositions for controlling of striped stem borer on rice was determined using laboratory bioassays, and compared to those of three controls. In the first control, only spinetoram was used for the treatment. In the second control, only methoxyfenozide was used for the treatment. In the third control, no pesticide was used.
The rice stem dipping method based on Standard Method for Bioassay Test (Chinese Standard Method NY/T1154.4-2006: Continuous Immersion Test for Insecticide Systemic Activity) was used to conduct the laboratory bioassays.
Five stems of rice were dipped into the solutions of pestidical compositions for 10 seconds and then taken out for drying in the air. The treated stems were placed into glass tubes. Treatment with water, solvent, and emulsifier alone was used as reference check. There were four replicates for each treatment. About 10±1 larvae of third-instar striped stem borer were placed into each glass tube. The openings of the tubes were covered with gauze. Laboratory bioassays were conducted at room temperature. The number of dead larvae was recorded at 72 hours following the treatment.

[1] = Chilo suppressalis, in Oryza sativa, 72 h

Compound: spinetoram
- Numbers of Dead SSB (mass concentration 0.125 mg/L, 72 hours): 0.5
- Mortality (%) (mass concentration 0.125 mg/L, third-instar larvae, 72 hours): 4.55%
- Numbers of Dead SSB (mass concentration 0.25 mg/L, 72 hours): 2
- Mortality (%) (mass concentration 0.25 mg/L, third-instar larvae, 72 hours): 18.41%
- Numbers of Dead SSB (mass concentration 0.5 mg/L, 72 hours): 4
- Mortality (%) (mass concentration 0.5 mg/L, third-instar larvae, 72 hours): 37.73%
- Numbers of Dead SSB (mass concentration 1 mg/L, 72 hours): 6.75
- Mortality (%) (mass concentration 1 mg/L, third-instar larvae, 72 hours): 64.09%
- Numbers of Dead SSB (mass concentration 2 mg/L, 72 hours): 8.5
- Mortality (%) (mass concentration 2 mg/L, third-instar larvae, 72 hours): 81.14%
- Numbers of Dead SSB (mass concentration 4 mg/L, 72 hours): 9.75
- Mortality (%) (mass concentration 4 mg/L, third-instar larvae, 72 hours): 95.23%
- LC50 (third-instar larvae, 72 hours): 0.71 mg/L
- LC90 (third-instar larvae, 72 hours): 2.76 mg/L

Compound: COc1cccc(C(=O)NN(C(=O)c2cc(C)cc(C)c2)C(C)(C)C)c1C [Methoxyfenozide, methoxyfenozide]
- LC50 [1]: 21.1 mg/L
- mortality at 2.5 µg/mL [1]: 4.77%
- mortality at 5 µg/mL [1]: 13.6%
- mortality at 10 µg/mL [1]: 28.4%
- mortality at 20 µg/mL [1]: 43.9%
- mortality at 40 µg/mL [1]: 67.5%
- mortality at 80 µg/mL [1]: 87.5%
- Numbers of Dead SSB (mass concentration 2.5 mg/L, 72 hours): 0.5
- Numbers of Dead SSB (mass concentration 5 mg/L, 72 hours): 1.5
- Numbers of Dead SSB (mass concentration 10 mg/L, 72 hours): 3
- Numbers of Dead SSB (mass concentration 20 mg/L, 72 hours): 7
- Numbers of Dead SSB (mass concentration 40 mg/L, 72 hours): 6.75
- Numbers of Dead SSB (mass concentration 80 mg/L, 72 hours): 8.75
- LC90 (third-instar larvae, 72 hours): 107.74 mg/L
